Patent publication US11208435B2, “Verticilide enantiomer and methods of inhibiting cardiac ryanodine receptor-mediated intracellular calcium release” (Vanderbilt University, priority 2017, dated 2021)

Assays:
[1] = target: T1, RyR1 (Sus scrofa, UniProt P16960); assay: [3H]ryanodine binding to skeletal muscle SR; parameters: species or system porcine; settings: 50 μM, three hours
T1 construct: SR isolated from porcine longissimus dorsi (RyR1); from tissue; host or cells: porcine longissimus dorsi sarcoplasmic reticulum
Method: (FIG. 2A) Representative confocal line scans of Ca2+ sparks in the absence (DMSO) or presence of 25 μM nat-1 or ent-1 in permeabilized Casq2−/− cardiomyocytes. (FIG. 2B) Ca2+ spark frequency in Casq2−/− cells treated with 25 μM nat-1, 7, 8, and their respective enantiomers. (FIG. 2C) Comparison of [3H]ryanodine binding to SR isolated from porcine longissimus dorsi (RyR1) or cardiac ventricle (RyR2) in the presence of 50 μM nat-1, ent-1, or tetracaine (tet). (FIG. 2D) Dose response curves for ent-1 and tet inhibition of [3H]ryanodine binding to RyR2. (FIG. 2E) Representative Ca2+ sparks from permeabilized wild-type cardiomyocytes treated with 3 μM ent-1, 25 μM flecainide, or 50 μM tetracaine. Graph indicates amplitude of Ca2+ release of the selected representative sparks over time. (FIG. 2F) Percent change in spark frequency, amplitude, mass, leak, and SR Ca2+ content relative to vehicle (DMSO), obtained from wild-type myocytes. SR Ca2+ content was measured as the Ca2+ transient amplitude elicited by application of 10 mM caffeine (n≥5 cells per group). Data are presented as mean±SEM. N≥30 cells per group for A, B, and F. N=4 replicates for each concentration tested in C and D. *p<0.05 vs DMSO, **p<0.01 vs DMSO, ***p<0.001 vs DMSO by 1-way ANOVA with Tukey's post-hoc test (B) or t-test (C, D, and F). […]

[2] = target: T2, RyR2 (Mus musculus, UniProt E9Q401); assay: Ca2+ sparks in permeabilized wild-type myocytes; format: cell-based; settings: 3 μM ent-1, 25 μM flecainide, 50 μM tetracaine
T2 construct: spontaneous openings of intracellular RyR2; endogenous in cells; host or cells: ventricular cardiomyocytes isolated from Casq2-/- mice (A1, A6) or wild-type mice (A5)
Method: (§1) (FIG. 2A) Representative confocal line scans of Ca2+ sparks in the absence (DMSO) or presence of 25 μM nat-1 or ent-1 in permeabilized Casq2−/− cardiomyocytes. (FIG. 2B) Ca2+ spark frequency in Casq2−/− cells treated with 25 μM nat-1, 7, 8, and their respective enantiomers. (FIG. 2C) Comparison of [3H]ryanodine binding to SR isolated from porcine longissimus dorsi (RyR1) or cardiac ventricle (RyR2) in the presence of 50 μM nat-1, ent-1, or tetracaine (tet). (FIG. 2D) Dose response curves for ent-1 and tet inhibition of [3H]ryanodine binding to RyR2. (FIG. 2E) Representative Ca2+ sparks from permeabilized wild-type cardiomyocytes treated with 3 μM ent-1, 25 μM flecainide, or 50 μM tetracaine. Graph indicates amplitude of Ca2+ release of the selected representative sparks over time. (FIG. 2F) Percent change in spark frequency, amplitude, mass, leak, and SR Ca2+ content relative to vehicle (DMSO), obtained from wild-type myocytes. SR Ca2+ content was measured as the Ca2+ transient amplitude elicited by application of 10 mM caffeine (n≥5 cells per group). Data are presented as mean±SEM. N≥30 cells per group for A, B, and F. N=4 replicates for each concentration tested in C and D. *p<0.05 vs DMSO, **p<0.01 vs DMSO, ***p<0.001 vs DMSO by 1-way ANOVA with Tukey's post-hoc test (B) or t-test (C, D, and F).
(§2) Skeletal and cardiac SR were incubated with 50 μM nat-1, ent-1, and tetracaine for three hours. Nat-1 increased RyR1 activity, but had no effect on RyR2 (FIG. 2C). Conversely, ent-1 inhibited RyR2, but had no effect on RyR1. The well-established RyR inhibitor, tetracaine, inhibited both isoforms. Ent-1 was selected to generate full dose response curves for both cardiac and skeletal SR. Ent-1 inhibited RyR2 in a concentration-dependent manner with an apparent IC50 of approximately 0.1 μM and maximal inhibition of approximately 20% (FIG. 2D), but had no effect on RyR1 up to 50 μM (Figure S2). […] To further characterize the Ca^2+ release inhibition by ent-1, the present inventors applied a lower concentration (3 μM) to wild type mouse myocytes and compared results to two other classical Ca^2+ release inhibitors, flecainide and tetracaine (representative line scans and sparks are shown in FIG. 2E).

[3] = target: T3, RyR2 (Sus scrofa, UniProt A0A5G2R1W3); assay: [3H]ryanodine binding to cardiac SR; parameters: species or system porcine; settings: for [3H]ryanodine binding (RyR2 activity): 50 μM, three hours
T3 construct: cardiac ventricle (RyR2); from tissue; host or cells: porcine cardiac ventricle sarcoplasmic reticulum
Method: as §1, §2

[4] = system: insect RyR; settings: read-out: IC50, binding insect RyR; cited from earlier work
[5] = [Ca2+]free by Fluo-4 fluorescence under spark assay conditions; format: physicochemical; settings: 25 μM, 10 minutes in internal spark solution
Method: Ventricular mouse myocytes were isolated, permeabilized with saponin to enable equivalent access of the compounds to the SR membrane, and incubated with DMSO or 25 μM nat- and ent-1, 7, 8. RyR2 activity was measured in the form of Ca^2+ sparks, which are elementary Ca^2+ release events generated by spontaneous openings of intracellular RyR2 Ca^2+ release channels. […] Cardiac SR Ca^2+ release is sensitive to the Ca^2+ concentration present at the cytosolic face of RyR2. To confirm that [Ca^2+]free was not altered by any of the compounds, Fluo-4 fluorescence was measured under spark assay conditions. The internal spark solution was incubated with DMSO or 25 μM nat-1, 7, 8, and their respective enantiomers for 10 minutes and [Ca^2+]free was calculated from a set of Ca^2+ standards.

[6] = target: T2, RyR2; assay: Ca2+ sparks in saponin-permeabilized Casq2-/- ventricular myocytes; format: cell-based; settings: 25 μM, permeabilized Casq2-/- cardiomyocytes, vs DMSO
Method: (FIG. 2A) Representative confocal line scans of Ca2+ sparks in the absence (DMSO) or presence of 25 μM nat-1 or ent-1 in permeabilized Casq2−/− cardiomyocytes. (FIG. 2B) Ca2+ spark frequency in Casq2−/− cells treated with 25 μM nat-1, 7, 8, and their respective enantiomers. (FIG. 2C) Comparison of [3H]ryanodine binding to SR isolated from porcine longissimus dorsi (RyR1) or cardiac ventricle (RyR2) in the presence of 50 μM nat-1, ent-1, or tetracaine (tet). (FIG. 2D) Dose response curves for ent-1 and tet inhibition of [3H]ryanodine binding to RyR2. (FIG. 2E) Representative Ca2+ sparks from permeabilized wild-type cardiomyocytes treated with 3 μM ent-1, 25 μM flecainide, or 50 μM tetracaine. […] SR Ca2+ content was measured as the Ca2+ transient amplitude elicited by application of 10 mM caffeine (n≥5 cells per group). […]
Ventricular mouse myocytes were isolated, permeabilized with saponin to enable equivalent access of the compounds to the SR membrane, and incubated with DMSO or 25 μM nat- and ent-1, 7, 8. RyR2 activity was measured in the form of Ca^2+ sparks, which are elementary Ca^2+ release events generated by spontaneous openings of intracellular RyR2 Ca^2+ release channels. […] To confirm that [Ca^2+]free was not altered by any of the compounds, Fluo-4 fluorescence was measured under spark assay conditions. […]

[7] = system: spontaneous Ca^2+ waves; settings: 10 μM; cited from earlier work
[8] = system: Casq2^−/− mice; assay: Catecholamine-induced ventricular arrhythmia, ECG in Casq2-/- mice; format: in vivo, mouse; settings: 30 mg/kg i.p.
Method: (FIG. 3A) Isolated cardiomyocytes were field stimulated at 3 Hz for 20 seconds followed by 40 seconds recording of SCR events (†). Application of 10 mM caffeine (caff) was used to measure SR Ca2+ content. (FIG. 3B) SCR frequency following cessation of pacing. N=63, 27, 31, 63, 30, and 27 cells for […] ent-1, respectively. **p<0.01, ***p<0.001 vs DMSO by t-test. (FIG. 3C) Representative heart rate traces in Casq2−/− mice treated with DMSO or ent-1. Isoproterenol (3.0 mg/kg i.p.) was injected at 0 s. Rhythm strips show arrhythmia features. Ectopic beats (†) produce a variable HR in the traces. (FIG. 3D) Quantification of catecholamine-induced ectopic beats by surface electrocardiogram in Casq2−/− mice injected intraperitoneally with 30 mg/kg (drug/body weight) nat-1 or ent-1 or DMSO of equivalent volume 30 minutes prior to recordings. ***p<0.001 vs DMSO or ###p<0.001 vs nat-1 by Mann-Whitney U-test. (FIG. 3E) Incidence of ventricular tachycardia (VT). p=0.0305 for ent-1 vs DMSO (*) or ent-1 vs nat-1 (#) by Fisher's exact test. N=22 mice per group (D and E). Data in B and D presented as mean±SEM.
To determine whether ent-1 inhibition of Ca^2+ release in cardiomyocytes in vitro translates into activity against ventricular arrhythmia in vivo, Casq2^−/− mice were injected intraperitoneally with 30 mg/kg nat-1, ent-1, or DMSO of equivalent volume. […]

T3 sequence (A0A5G2R1W3 20-4900): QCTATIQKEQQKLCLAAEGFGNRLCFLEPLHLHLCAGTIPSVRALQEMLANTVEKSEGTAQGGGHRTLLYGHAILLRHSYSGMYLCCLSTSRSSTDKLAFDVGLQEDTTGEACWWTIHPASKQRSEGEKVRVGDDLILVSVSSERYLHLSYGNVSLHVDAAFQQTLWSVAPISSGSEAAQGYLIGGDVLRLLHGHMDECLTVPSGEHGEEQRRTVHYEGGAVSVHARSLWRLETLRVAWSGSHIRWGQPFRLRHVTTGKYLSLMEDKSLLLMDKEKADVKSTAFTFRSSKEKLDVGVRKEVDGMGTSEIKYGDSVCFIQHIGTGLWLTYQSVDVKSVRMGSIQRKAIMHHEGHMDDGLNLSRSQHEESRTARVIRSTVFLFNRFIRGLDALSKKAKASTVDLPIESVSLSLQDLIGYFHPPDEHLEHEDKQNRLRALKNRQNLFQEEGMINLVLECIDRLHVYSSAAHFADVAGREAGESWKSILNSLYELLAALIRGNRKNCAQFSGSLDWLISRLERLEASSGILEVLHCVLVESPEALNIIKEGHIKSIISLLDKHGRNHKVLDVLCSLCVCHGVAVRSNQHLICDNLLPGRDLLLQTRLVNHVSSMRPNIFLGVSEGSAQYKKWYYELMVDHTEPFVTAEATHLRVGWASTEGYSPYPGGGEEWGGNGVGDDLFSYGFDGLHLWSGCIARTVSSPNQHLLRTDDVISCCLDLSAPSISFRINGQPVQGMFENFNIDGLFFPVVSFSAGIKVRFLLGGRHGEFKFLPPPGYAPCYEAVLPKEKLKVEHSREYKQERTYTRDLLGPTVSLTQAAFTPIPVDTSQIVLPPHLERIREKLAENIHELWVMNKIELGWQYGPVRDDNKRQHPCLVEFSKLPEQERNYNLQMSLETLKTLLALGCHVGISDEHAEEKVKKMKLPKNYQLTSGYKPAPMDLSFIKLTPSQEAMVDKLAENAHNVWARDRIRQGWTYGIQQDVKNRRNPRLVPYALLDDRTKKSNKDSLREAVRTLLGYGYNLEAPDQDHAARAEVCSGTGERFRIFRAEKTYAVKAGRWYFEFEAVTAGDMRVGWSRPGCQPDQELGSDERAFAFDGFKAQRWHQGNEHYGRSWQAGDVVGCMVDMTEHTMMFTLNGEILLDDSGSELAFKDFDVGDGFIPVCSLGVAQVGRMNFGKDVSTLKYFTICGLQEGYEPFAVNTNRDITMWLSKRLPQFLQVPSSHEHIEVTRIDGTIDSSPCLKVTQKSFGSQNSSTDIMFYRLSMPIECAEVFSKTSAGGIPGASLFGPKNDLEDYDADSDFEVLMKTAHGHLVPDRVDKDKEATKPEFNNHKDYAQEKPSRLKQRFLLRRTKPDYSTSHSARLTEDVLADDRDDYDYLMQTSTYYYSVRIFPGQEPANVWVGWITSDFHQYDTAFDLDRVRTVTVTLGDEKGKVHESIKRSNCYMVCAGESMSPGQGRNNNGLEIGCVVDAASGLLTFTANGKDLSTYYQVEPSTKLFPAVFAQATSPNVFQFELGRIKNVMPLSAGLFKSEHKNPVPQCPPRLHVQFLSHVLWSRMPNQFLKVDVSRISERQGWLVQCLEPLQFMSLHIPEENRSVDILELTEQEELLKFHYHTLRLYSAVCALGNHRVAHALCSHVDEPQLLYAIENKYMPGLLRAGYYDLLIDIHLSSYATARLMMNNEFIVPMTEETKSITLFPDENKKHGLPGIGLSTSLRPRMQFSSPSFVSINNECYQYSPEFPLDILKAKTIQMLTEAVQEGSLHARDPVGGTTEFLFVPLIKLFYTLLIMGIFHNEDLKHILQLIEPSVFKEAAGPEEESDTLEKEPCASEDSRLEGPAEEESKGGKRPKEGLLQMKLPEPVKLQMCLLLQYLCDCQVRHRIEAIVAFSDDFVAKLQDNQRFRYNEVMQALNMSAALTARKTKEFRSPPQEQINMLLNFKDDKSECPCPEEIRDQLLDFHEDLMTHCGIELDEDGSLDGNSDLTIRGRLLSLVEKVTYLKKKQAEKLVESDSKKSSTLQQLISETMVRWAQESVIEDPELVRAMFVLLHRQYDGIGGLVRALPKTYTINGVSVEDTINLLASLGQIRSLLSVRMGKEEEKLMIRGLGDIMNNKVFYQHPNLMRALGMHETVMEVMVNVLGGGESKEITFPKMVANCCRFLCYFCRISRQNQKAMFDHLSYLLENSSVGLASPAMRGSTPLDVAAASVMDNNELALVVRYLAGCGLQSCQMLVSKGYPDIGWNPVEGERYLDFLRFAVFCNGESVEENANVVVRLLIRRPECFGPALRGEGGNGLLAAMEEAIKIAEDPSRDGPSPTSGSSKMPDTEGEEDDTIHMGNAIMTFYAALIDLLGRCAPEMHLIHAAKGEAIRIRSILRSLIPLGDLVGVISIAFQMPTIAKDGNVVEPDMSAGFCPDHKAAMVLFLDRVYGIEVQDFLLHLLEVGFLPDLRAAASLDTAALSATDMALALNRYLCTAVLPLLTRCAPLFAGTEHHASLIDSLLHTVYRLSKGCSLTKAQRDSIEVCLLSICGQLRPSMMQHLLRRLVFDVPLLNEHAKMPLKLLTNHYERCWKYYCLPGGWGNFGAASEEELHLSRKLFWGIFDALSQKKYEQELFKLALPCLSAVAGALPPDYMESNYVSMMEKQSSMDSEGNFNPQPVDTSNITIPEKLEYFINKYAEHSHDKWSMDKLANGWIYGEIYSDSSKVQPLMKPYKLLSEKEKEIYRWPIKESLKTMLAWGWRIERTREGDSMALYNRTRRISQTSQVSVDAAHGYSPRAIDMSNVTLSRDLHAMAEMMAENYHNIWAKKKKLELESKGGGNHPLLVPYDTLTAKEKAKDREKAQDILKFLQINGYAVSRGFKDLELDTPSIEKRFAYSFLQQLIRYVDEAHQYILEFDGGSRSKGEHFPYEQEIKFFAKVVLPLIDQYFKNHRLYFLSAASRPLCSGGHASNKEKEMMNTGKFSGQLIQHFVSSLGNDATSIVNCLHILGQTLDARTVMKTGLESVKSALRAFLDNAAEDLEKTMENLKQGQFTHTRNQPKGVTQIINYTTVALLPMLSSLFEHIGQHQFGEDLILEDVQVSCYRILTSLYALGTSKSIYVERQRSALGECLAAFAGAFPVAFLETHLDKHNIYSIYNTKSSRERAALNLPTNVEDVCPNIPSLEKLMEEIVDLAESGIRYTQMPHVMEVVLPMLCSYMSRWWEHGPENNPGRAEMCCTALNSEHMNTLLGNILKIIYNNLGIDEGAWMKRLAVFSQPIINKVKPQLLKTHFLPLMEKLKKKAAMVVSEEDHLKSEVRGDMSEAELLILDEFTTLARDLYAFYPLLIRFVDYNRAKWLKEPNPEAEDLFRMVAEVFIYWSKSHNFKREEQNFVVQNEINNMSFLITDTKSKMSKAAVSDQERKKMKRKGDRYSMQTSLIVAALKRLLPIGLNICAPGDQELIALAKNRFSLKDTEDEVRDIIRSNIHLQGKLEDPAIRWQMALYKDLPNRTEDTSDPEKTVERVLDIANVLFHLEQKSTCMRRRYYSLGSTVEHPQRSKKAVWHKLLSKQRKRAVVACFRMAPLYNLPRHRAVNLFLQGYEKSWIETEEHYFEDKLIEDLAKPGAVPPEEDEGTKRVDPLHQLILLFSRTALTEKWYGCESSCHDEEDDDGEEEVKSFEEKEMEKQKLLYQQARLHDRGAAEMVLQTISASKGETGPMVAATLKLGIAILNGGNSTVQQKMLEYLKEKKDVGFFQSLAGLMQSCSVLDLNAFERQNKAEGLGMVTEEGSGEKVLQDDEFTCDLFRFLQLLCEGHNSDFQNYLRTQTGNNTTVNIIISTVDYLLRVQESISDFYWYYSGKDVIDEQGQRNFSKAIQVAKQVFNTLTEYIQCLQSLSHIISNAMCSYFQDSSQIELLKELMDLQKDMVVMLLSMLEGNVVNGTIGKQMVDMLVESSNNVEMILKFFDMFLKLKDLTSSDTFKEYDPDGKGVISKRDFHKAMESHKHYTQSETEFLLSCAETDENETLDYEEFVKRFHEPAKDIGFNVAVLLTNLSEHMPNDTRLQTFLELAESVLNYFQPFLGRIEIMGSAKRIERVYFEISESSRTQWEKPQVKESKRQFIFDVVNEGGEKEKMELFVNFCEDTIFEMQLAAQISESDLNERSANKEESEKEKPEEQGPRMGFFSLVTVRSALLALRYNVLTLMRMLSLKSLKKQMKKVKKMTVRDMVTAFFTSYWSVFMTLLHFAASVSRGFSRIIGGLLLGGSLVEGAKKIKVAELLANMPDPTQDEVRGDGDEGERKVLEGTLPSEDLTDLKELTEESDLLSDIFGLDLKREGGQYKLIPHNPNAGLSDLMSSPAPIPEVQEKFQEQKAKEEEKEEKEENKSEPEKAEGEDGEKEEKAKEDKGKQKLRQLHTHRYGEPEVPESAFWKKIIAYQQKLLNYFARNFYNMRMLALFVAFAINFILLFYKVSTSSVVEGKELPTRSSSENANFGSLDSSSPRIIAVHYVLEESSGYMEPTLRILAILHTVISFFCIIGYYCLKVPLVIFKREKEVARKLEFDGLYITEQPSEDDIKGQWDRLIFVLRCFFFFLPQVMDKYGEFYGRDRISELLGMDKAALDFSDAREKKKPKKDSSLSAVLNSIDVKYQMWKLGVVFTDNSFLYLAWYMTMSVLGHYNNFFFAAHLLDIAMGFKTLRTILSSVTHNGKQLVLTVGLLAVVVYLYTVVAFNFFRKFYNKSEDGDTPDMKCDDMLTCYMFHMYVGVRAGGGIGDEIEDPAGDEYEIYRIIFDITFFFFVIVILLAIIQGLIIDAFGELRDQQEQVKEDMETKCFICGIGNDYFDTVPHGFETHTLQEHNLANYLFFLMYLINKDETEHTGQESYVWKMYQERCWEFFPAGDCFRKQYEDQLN

Ca2+ spark frequency [2]	Ca2+ spark mediated SR Ca2+ leak [2]	Compound	[3H]ryanodine binding (RyR1 activity) [1]	Ca2+ spark mass [2]	[3H]ryanodine binding (RyR2 activity) [3]	further results
depresses	only modestly reduces	CCCCNc1ccc(C(=O)OCCN(C)C)cc1 [tetracaine]	inhibited	did not reduce	inhibited	
		CCCCCC1OC(=O)C(C)N(C)C(=O)C(CCCCC)OC(=O)C(C)N(C)C(=O)C(CCCCC)OC(=O)C(C)N(C)C(=O)C(CCCCC)OC(=O)C(C)N(C)C1=O (single isomer, unassigned; (-)) [nat-1, (−)-Verticilide]	increased		no effect	IC50 [4]: 4200 nM; binding to Ca2+ ([Ca2+]free) [5]: did not bind to Ca^2+; Ca2+ spark frequency [6]: no effect
paradoxical increase	leak-neutral blocker	O=C(NCC1CCCCN1)c1cc(OCC(F)(F)F)ccc1OCC(F)(F)F (stereo not drawn) [flecainide]		reduces the amount of Ca^2+ released during a spark		effectiveness in suppressing spontaneous Ca2+ waves [7]: 30%
		CCCCC[C@@H]1OC(=O)[C@@H](C)N(C)C(=O)[C@H](CCCCC)OC(=O)[C@@H](C)N(C)C(=O)[C@H](CCCCC)OC(=O)[C@@H](C)N(C)C(=O)[C@H](CCCCC)OC(=O)[C@@H](C)N(C)C1=O (single isomer, unassigned) [ent-1, ent-(+)-verticilide]				IC50 [3]: ~100 nM; maximal inhibition of [3H]ryanodine binding to RyR2 ([3]; dose response, cardiac SR): approximately 20%; ECG PR interval ([8]; index of Ca2+ channel block): no significant effect; ECG QRS duration ([8]; index of Na+ channel block): no significant effect
